In ChEMBL document CHEMBL1201862, “PubChem BioAssay data set” (2004):
Active and inactive are the calls of the source.

Tests used:
[1] = inhibitors of firefly luciferase expression or activity, dose response, H4 neuroglioma cells, luminescence (AID 1990); format: functional, cell-based
[2] = Luminescence Cell-Based Dose Response HTS to Identify Inhibitors of 5'UTR Stem-Loop Driven Prion Protein mRNA Translation in H4 Neuroglioblastoma Cells. [Related pubchem assays: 1827 (Project Summary), 1813 (Primary HTS)]; format: functional
[3] = inhibitors of SNCA 5'UTR-driven reporter translation, confirmation, H4 neuroglioma cells, luminescence (AID 1988); format: functional, cell-based
Vero = assay: cells; format: functional; conditions: Chlorocebus sabaeus
Protein skinhead-1 = target: T1, Protein skinhead-1 (Caenorhabditis elegans, UniProt P34707); format: functional
T1 sequence (P34707 whole entry): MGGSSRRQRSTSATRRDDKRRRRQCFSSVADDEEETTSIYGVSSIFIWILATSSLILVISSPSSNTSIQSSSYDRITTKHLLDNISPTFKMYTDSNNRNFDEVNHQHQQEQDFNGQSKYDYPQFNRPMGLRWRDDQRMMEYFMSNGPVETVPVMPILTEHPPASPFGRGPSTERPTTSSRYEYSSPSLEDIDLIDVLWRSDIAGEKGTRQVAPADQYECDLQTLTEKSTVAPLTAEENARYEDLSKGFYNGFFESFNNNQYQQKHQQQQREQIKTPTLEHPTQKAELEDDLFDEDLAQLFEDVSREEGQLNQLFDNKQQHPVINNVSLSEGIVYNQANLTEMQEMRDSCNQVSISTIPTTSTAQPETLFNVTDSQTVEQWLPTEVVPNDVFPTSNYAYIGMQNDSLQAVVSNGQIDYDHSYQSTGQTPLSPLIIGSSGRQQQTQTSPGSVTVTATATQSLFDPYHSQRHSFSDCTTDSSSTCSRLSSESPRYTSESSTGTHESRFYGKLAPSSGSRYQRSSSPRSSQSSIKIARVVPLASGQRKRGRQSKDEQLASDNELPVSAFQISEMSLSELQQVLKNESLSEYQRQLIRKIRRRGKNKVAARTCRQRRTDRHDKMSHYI

[4] = growth suppression of PTEN-null colon cells, dose response, cell-based, HCT116 PTEN knockout (AID 1047); format: functional;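 further: HCT116 colon tumor cells with PTEN knocked out; cells exposed to compound for 60 hours before readout; potency for loss of cell viability measured by luminescence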
[5] = growth suppression of beta-catenin-knockout colon cells, dose response, cell-based, HCT116, human colon tumor (AID 1045); format: functional;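 further: HCT116 colon tumor cells with beta catenin knocked out; cells exposed to compound for 60 hours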
[6] = target: T2, Replicative DNA helicase DnaB (Mycobacterium tuberculosis, UniProt P9WMR3); assay: DnaB intein splicing inhibitors, dose response, biochemical, cell-free fluorescence (AID 449749); format: functional
T2 sequence (P9WMR3 whole entry): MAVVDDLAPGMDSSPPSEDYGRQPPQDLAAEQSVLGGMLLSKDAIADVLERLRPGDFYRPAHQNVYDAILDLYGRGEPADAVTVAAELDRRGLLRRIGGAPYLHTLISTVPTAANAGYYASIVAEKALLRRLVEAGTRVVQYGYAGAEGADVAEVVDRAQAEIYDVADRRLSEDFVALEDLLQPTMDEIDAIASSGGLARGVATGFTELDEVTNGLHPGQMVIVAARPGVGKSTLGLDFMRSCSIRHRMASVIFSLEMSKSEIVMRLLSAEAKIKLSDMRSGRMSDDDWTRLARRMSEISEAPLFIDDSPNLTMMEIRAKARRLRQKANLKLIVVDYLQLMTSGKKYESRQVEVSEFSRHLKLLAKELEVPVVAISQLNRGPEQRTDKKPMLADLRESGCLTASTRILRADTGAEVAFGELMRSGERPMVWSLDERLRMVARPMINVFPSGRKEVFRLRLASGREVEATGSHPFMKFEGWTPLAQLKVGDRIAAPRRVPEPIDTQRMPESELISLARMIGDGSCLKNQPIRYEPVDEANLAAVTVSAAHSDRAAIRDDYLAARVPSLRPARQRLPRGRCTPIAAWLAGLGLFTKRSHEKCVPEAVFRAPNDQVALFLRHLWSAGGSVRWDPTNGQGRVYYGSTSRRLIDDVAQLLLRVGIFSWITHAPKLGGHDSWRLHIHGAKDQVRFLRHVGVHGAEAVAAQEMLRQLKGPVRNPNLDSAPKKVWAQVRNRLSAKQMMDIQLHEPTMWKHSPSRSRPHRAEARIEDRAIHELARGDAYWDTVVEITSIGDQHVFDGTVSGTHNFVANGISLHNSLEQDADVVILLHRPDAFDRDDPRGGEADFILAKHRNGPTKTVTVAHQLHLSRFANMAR

Protein RecA = target: T3, Protein RecA (Mycobacterium tuberculosis, UniProt P9WHJ3); assay: Fluorescence Cell-Free Homogeneous Dose Retest to Identify Inhibitors of RecA-Intein Splicing Activity. [Related pubchem assays (depositor defined):AID2097, AID2223, AID489010, AID492950]; format: functional
T3 sequence (P9WHJ3 whole entry): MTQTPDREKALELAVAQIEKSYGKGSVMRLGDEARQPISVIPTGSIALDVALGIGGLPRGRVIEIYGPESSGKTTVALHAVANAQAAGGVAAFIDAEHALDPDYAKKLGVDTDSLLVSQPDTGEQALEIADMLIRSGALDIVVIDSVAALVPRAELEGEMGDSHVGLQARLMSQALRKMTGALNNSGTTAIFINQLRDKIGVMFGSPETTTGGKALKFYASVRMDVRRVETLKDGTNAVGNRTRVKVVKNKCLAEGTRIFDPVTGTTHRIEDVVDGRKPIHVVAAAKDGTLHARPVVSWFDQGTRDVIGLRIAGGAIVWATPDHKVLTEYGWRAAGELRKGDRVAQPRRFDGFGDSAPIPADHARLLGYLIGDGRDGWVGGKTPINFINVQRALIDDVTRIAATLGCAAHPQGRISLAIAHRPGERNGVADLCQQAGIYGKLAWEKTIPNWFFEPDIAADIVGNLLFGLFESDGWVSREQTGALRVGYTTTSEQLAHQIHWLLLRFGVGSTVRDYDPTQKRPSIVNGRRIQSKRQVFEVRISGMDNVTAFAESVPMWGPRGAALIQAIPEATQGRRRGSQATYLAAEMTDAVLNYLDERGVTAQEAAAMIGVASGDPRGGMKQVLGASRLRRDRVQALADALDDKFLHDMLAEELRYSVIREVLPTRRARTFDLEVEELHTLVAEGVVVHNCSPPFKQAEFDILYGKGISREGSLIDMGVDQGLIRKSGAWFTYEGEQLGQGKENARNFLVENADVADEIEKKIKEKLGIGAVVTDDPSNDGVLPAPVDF

[7] = Shn3 3'UTR reporter inhibitors, dose response, cell-based, Clone20 osteoblasts, firefly luciferase, cherry-picked (AID 624132); format: functional;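 further: firefly luciferase luminescence from reporter carrying the Shn3 3'UTR in osteoblasts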
[8] = HepG2 cell cytotoxicity, dose response, cytotoxicity control for Shn3 inhibitor project, CellTiter-Glo, cherry-picked (AID 624134); format: functional, cell-based
[9] = control 3'UTR Renilla luciferase suppression, dose response, counter-screen for Shn3 inhibitor project, cell-based, Clone20-Shn3RL, cherry-picked (AID 624133); format: functional
[10] = HEp-2 cell cytotoxicity, dose response, cytotoxicity control for RSV inhibitor project, HTS (AID 2410); format: functional; conditions: human respiratory syncytial virus
Nonstructural protein 1 = Nonstructural protein 1 (Influenza A virus, UniProt Q194T2); format: functional, Influenza A virus (A/California/07/2009(H1N1))
Fatty acid synthase [11] = target: T4, Fatty acid synthase (Homo sapiens, UniProt P49327); assay: FAS thioesterase domain inhibitors, dose response, biochemical, endpoint fluorescence intensity, uHTS hits (AID 624327); format: functional;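 further: fluorescence from hydrolysis of an O-methyl fluorescein acyl ester substrate by the enzyme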
Fatty acid synthase [12] = target: T4, Fatty acid synthase; assay: FAS thioesterase domain inhibitors, dose response, biochemical, kinetic fluorescence intensity (AID 624326); format: functional;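 further: rate of fluorescence rise from hydrolysis of a fluorogenic O-methyl fluorescein ester substrate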
[13] = inhibitors of HIV Env-driven cell fusion, dose response, cherry-pick (AID 652057); format: functional, cell-based
[14] = ZM109 Env clade C HIV-1 fusion inhibitors, dose response, HeLa effector, CEM target cells, luciferase, cherry-pick (AID 652058); format: functional, cell-based
[15] = inhibitors of clade B AD8 Env fusion, dose response, cell-based, cherry-pick (AID 652062); format: functional;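 further: luciferase signal from cell-cell fusion driven by HIV-1 clade B AD8 Env; potency is for inhibitors of fusion seen as a drop in luminescence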
Cytochrome P450 2C19 = Cytochrome P450 2C19 (Homo sapiens, UniProt P33261); assay: Cytochrome panel assay with activity outcomes. Panel member name: p450-cyp2c19 Compounds with AC50 equal or less than 10 uM are considered active; format: functional; conditions: read-out: AC50
[16] = microbe, parasite or virus in culture; format: functional; conditions: Mycobacterium tuberculosis

T4 sequence (P49327 whole entry, the tested form may be a part): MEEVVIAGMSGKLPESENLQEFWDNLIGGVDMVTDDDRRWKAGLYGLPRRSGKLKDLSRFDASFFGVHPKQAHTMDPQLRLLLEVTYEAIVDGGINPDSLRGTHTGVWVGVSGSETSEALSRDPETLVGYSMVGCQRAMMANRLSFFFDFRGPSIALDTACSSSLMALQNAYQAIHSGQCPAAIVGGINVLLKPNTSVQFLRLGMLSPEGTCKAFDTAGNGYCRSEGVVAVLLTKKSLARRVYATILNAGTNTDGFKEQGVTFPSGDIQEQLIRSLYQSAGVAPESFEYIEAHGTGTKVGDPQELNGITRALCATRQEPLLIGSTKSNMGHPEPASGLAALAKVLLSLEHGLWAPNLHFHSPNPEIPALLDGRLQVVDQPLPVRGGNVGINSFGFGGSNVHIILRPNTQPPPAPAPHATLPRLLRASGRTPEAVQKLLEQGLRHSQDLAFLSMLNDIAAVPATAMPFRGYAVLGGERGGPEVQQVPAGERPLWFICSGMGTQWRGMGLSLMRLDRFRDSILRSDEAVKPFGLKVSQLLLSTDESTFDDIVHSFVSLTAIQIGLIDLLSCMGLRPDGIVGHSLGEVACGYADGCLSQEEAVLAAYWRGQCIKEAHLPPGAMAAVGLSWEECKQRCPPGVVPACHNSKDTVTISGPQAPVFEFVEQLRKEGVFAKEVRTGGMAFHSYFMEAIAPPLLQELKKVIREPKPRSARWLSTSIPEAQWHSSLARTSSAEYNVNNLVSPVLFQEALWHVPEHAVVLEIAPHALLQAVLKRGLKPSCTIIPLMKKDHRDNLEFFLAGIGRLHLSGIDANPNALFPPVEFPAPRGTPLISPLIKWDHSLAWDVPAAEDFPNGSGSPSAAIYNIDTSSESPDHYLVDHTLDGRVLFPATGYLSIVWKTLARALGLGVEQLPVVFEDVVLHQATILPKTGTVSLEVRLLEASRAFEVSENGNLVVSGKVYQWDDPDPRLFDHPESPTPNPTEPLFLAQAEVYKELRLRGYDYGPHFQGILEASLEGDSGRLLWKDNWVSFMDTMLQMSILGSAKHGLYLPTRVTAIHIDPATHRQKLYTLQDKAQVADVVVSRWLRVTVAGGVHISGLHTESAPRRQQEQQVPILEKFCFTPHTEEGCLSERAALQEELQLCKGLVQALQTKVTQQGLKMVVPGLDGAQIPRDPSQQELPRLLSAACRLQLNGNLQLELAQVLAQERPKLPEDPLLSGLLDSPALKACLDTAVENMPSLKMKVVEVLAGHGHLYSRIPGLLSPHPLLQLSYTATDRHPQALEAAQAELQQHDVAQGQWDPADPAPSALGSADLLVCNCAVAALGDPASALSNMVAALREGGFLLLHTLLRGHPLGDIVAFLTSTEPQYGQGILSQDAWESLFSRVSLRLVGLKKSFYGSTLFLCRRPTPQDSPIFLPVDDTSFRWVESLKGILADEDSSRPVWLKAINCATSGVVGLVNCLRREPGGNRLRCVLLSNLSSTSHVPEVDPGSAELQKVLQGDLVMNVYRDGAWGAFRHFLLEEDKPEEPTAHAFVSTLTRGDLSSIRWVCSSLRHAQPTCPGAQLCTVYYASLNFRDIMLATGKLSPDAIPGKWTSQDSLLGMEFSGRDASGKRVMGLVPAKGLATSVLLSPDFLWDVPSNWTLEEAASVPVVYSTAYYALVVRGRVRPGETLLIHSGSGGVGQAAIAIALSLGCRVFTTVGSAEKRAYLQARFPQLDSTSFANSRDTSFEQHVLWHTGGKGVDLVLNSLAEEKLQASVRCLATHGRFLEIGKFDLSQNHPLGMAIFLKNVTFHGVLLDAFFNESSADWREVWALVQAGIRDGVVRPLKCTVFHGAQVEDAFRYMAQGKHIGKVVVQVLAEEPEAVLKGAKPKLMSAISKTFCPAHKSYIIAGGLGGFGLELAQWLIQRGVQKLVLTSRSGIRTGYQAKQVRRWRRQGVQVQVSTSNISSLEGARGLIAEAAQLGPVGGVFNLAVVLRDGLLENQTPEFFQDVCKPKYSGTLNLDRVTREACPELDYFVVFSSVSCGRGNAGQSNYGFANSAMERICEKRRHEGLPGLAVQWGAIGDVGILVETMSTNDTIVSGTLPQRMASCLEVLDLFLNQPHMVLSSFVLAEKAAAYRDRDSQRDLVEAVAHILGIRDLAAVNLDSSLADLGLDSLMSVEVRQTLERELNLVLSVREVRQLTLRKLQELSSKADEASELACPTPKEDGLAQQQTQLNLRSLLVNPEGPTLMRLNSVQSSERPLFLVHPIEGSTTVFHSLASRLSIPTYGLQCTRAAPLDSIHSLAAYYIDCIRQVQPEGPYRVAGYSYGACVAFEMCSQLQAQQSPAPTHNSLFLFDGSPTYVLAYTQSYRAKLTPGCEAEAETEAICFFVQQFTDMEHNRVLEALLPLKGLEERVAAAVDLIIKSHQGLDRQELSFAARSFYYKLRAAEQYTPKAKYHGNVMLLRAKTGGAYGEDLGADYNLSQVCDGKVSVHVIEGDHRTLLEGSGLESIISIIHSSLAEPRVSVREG
Nonstructural protein 1, sequence (Q194T2 whole entry, the tested form may be a part): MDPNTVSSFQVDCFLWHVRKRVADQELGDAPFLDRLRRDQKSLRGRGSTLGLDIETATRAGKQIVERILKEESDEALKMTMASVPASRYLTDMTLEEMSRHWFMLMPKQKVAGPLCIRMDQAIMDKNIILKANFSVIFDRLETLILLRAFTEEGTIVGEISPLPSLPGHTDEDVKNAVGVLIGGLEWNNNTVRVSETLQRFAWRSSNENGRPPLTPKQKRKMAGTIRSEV
Cytochrome P450 2C19, sequence (P33261 whole entry): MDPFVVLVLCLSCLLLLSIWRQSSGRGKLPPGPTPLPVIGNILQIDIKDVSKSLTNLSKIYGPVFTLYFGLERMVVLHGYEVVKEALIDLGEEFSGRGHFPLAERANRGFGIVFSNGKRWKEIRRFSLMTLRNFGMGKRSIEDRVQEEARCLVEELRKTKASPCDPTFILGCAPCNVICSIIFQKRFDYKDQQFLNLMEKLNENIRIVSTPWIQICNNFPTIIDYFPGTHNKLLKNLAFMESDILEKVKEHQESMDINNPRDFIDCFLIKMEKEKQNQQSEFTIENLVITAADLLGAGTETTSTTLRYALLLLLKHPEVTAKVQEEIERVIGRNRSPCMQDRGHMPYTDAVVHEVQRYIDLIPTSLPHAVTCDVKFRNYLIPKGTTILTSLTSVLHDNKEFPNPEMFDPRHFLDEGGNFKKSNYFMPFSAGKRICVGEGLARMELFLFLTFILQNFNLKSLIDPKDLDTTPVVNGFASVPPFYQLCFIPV

N#Cc1cc(C(=O)c2ccccc2OCC(=O)Nc2ccccc2Cl)cn(C2CCCCC2)c1=O
EC50 [1]: 22 µM (active)
EC50 [2]: > 120 µM (not active)
EC50 [3]: > 120 µM (not active)

COc1ccccc1N1CCN(CC(O)c2c(C)[nH]c3ccccc23)CC1 (stereo not drawn)
CC50 (Vero): > 25 µM (active)

Cc1ccc(-c2csc(-c3ccncc3)n2)cc1
IC50 (Protein skinhead-1): 65.2 µM (inactive)

Clc1ccc(-c2cn3c(n2)-c2ccccc2C3)cc1Cl
IC50 (Protein skinhead-1): > 100 µM (inactive)

Cc1cc(C)c2cc(C#N)c(N3CCCC3)nc2c1
IC50 (Protein skinhead-1): > 100 µM (inactive)

Cc1c(NC(=O)CCC2CCCCC2)cc(C(=O)N2CCOCC2)cc1[N+](=O)[O-]
EC50 [1]: > 120 µM (not active)
EC50 [2]: > 120 µM (not active)
EC50 [3]: > 120 µM (not active)

Clc1ccc(Sc2oc(/C=N/n3cnnc3)cc2Br)cc1
EC50 [4]: 15.2 µM (active)
EC50 [5]: 43.8 µM (active)
AC50 [6]: 2 µM (active)
EC50 (Protein RecA): 8.65 µM (active)

COC(=O)C1=C(c2ccc(OCc3ccccc3)cc2)C[C@@H]2CC[C@H]1N2C(=O)NCc1ccc(C(C)(C)C)cc1
AC50 [7]: 6.84 µM (active)
AC50 [8]: > 70 µM (inactive)
AC50 [9]: 1.63 µM (active)

CCN(CC)S(=O)(=O)c1ccc(C2=NOC3(C2)N(C)c2ccccc2C3(C)C)cc1 (stereo not drawn)
CC50 [10]: > 50 µM (active)
EC50 [1]: > 120 µM (not active)
EC50 [2]: 29 µM (active)
EC50 [3]: 0.516 µM (active)

CCN(Cc1ccccc1)c1ccc(N=Nc2nn(C)c(C)c2[N+](=O)[O-])cc1
IC50 (Nonstructural protein 1): 9.29 µM (active)
IC50 (Fatty acid synthase [11]): 13.9 µM (active)
IC50 (Fatty acid synthase [12]): 7.95 µM (active)

O=C(Nc1ccc(C2CC2(Cl)Cl)cc1)c1ccccc1Br (stereo not drawn)
IC50 (Protein skinhead-1): 70 µM (inactive)

CC(C)C[C@H]1CN([C@@H](CC(C)C)CN2CCCC2CN2C(=S)NC[C@@H]2Cc2ccc(O)cc2)C(=S)N1CC1CCCCCC1 (stereo partly drawn)
CC50 (Vero): 20.9 µM (active)

CC(=O)Nc1sc(/C(C#N)=C\c2cccc(Cl)c2)nc1-c1ccc(C)cc1
IC50 (Protein skinhead-1): > 100 µM (inactive)

O=C(Nc1cccc(C(=O)O)c1)/C(=C\c1cccc([N+](=O)[O-])c1)NC(=O)c1ccc(Br)cc1
IC50 (Fatty acid synthase [11]): 4.62 µM (active)
IC50 (Fatty acid synthase [12]): 5.19 µM (active)

O=C1CC(c2cccc([N+](=O)[O-])c2)c2c(ccc3ccccc23)N1 (stereo not drawn)
IC50 (Fatty acid synthase [11]): 52.2 µM (inactive)
IC50 (Fatty acid synthase [12]): 56.4 µM (inactive)

O=C(NC1CC1)c1cc(-c2ccc(Br)cc2)nc2ccccc12
IC50 (Protein skinhead-1): > 100 µM (inactive)

Cc1ccc(S(=O)(=O)Nc2ccc3c(c2)CC(=O)N([C@@H](C)CO)C[C@H](C)[C@H](CN(C)S(=O)(=O)c2ccccc2)O3)cc1
AC50 [13]: 14.7 µM (active)
AC50 [14]: 15.5 µM (active)
AC50 [15]: 34.2 µM (active)

O=C(CN1CCCC1c1cccs1)Nc1cc(S(=O)(=O)N2CCCCC2)ccc1Cl (stereo not drawn)
AC50 [7]: 14.4 µM (active)
AC50 [8]: 60.5 µM (active)
AC50 [9]: 6.82 µM (active)

Cc1ccc(OCCNC(=O)CNC(=O)c2ccc(Cl)c([N+](=O)[O-])c2)cc1
IC50 (Fatty acid synthase [11]): 8.99 µM (active)
IC50 (Fatty acid synthase [12]): 9.71 µM (active)

Cc1cc2c(=O)oc(-c3ccccc3Br)nc2s1
IC50 (Fatty acid synthase [11]): 7.57 µM (active)
IC50 (Fatty acid synthase [12]): 8.01 µM (active)

Clc1ccc2oc(-c3cccnc3)nc2c1
AC50 (Cytochrome P450 2C19): 14.1 µM (inconclusive)
IC50 (Protein skinhead-1): 29 µM (active)

Cc1ccc(C)c(S(=O)(=O)N2CCN(C(=O)C3CCN(c4ncnc5sc(C)c(C)c45)CC3)CC2)c1
AC50 [7]: 2.82 µM (active)
AC50 [8]: > 70 µM (inactive)
AC50 [9]: 2.29 µM (active)

C=CCn1c(SCc2cc(=O)n3ccsc3n2)nc2sc(C)c(C)c2c1=O
EC50 [1]: 15.3 µM (active)
EC50 [2]: > 120 µM (not active)
EC50 [3]: > 120 µM (not active)

O=[N+]([O-])c1ccc(C2CC(c3ccccc3)=Nc3ccccc3S2)cc1 (stereo not drawn)
CC50 [16]: 37.4 µM (active)

C[C@H](CO)N1C[C@H](C)[C@H](CN(C)S(=O)(=O)c2ccccc2)Oc2ccc(NC(=O)Cn3cnnn3)cc2CC1=O
AC50 [13]: 13.5 µM (active)
AC50 [14]: 2.07 µM (active)
AC50 [15]: 20.3 µM (active)

Cn1nc(C(C)(C)C)cc1C(=O)N1CCCCC1c1cc(C(=O)Nc2cccc3c2CCCC3)no1 (stereo not drawn)
AC50 [7]: 10.2 µM (active)
AC50 [8]: 62.8 µM (active)
AC50 [9]: 16.5 µM (active)

COc1cccc(-n2c(CN3CCN(c4ccccn4)CC3)nc3ccc([N+](=O)[O-])cc3c2=O)c1
IC50 (Fatty acid synthase [11]): 3.23 µM (active)
IC50 (Fatty acid synthase [12]): 3.67 µM (active)

COC(=O)c1c(NC(=O)CCl)sc(C(=O)N2CCOCC2)c1C
CC50 [16]: 16.4 µM (active)

O=C(C[C@H]1C=C[C@@H](NC(=O)Nc2ccccc2F)[C@@H](CO)O1)NCc1ccc(-c2ccccc2)cc1
AC50 [13]: < 0.26 µM (active)
AC50 [14]: < 0.26 µM (active)
AC50 [15]: < 0.26 µM (active)
